Activity calls are given as the source filed them. The calls are words filed in the database; no cut-off is given here.
Key:
[1] = system: Tyrosine-protein kinase ABL1 (Homo sapiens), P00519 [T315I]; assay: Inhibition of human ABL […] mutant assessed as residual activity at 10 uM by Eurofins kinase profiler method relative to control
[2] = system: RAW264.7; assay: Inhibition of NFkappaB/MAPK signaling pathway in mouse RAW264.7 cells assessed as reduction in LPS-induced IkappaBalpha degradation at 50 uM by Western blot analysis; type: cell-based
[3] = system: J774.A1; assay: cells; settings: Mus musculus
Description: Antiinflammatory activity in LPS-induced mouse J774.A1 cells assessed as inhibition of TNF-alpha release pretreated for 30 mins followed by LPS stimulation and measured after 24 hrs by ELISA

[4] = system: Mus musculus; assay: Antiinflammatory activity in LPS induced C57BL/6 mouse model of acute lung injury assessed as reduction in over activation of spleen at 20 to 40 mg/kg, ip preadministered for 30 mins followed by LPS administration and measured after 6 hrs by F4/80 labeling based immunohistochemical analysis; type: functional, organism-based; settings: dose 20-40 mg/kg, time 6.5 hrs
[5] = system: RAW264.7; assay: Inhibition of NFkappaB signaling pathway in LPS-induced mouse RAW264.7 cells assessed as inhibition of p65 entry into nucleus pretreated for 2 hrs followed by LPS stimulation and measured after 15 mins by immunofluorescence staining based analysis; type: cell-based; settings: time 135.0 min
[6] = Stability of compound in rat plasma at 10 mg/ml incubated for 8 hrs and measured every 2 hrs hy HPLC analysis; type: ADME, cell-free
[7] = system: Mus musculus; assay: Antiinflammatory activity in male C57BL/6 mouse model of DSS-induced ulcerative colitis assessed as reduction in spleen to body weight ratio at 10 to 20 mg/kg, po administered for 11 days with subsequent administration of DSS for 8 days; type: functional, organism-based; settings: dose 10-20 mg/kg, time 11.0 day
[8] = system: Mus musculus; assay: Antiinflammatory activity in LPS induced C57BL/6 mouse model of acute lung injury assessed as inhibition of TNFalpha release in serum at 20 to 40 mg/kg, ip preadministered for 30 mins followed by LPS administration and measured after 6 hrs by ELISA; type: functional, organism-based; settings: dose 20-40 mg/kg, time 6.5 hrs
[9] = Stability of compound in enzyme free simulated intestinal fluid at 10 mg/ml incubated for 8 hrs and measured every 2 hrs hy HPLC analysis; type: ADME; settings: simulated gi fluid
[10] = Cytotoxicity against mouse RAW264.7 cells assessed as cell viability by MTT assay; type: toxicity, cell-based; set-up: concentration or dose not given beside the values; settings: read-out: Activity
[11] = system: Mus musculus; assay: In vivo binding affinity to IRAK4 in DSS-induced ulcerative colitis C57BL/6 mouse colon assessed as thermal stabilization at 10 to 20 mg/kg, po administered for 11 days with subsequent administration of DSS for 8 days by CETSA; type: functional, organism-based; settings: dose 10-20 mg/kg, time 11.0 day
[12] = system: Mus musculus; assay: Antiinflammatory activity in male C57BL/6 mouse model of DSS-induced ulcerative colitis assessed as reduction in TNF-alpha level in serum at 20 mg/kg, po administered for 11 days with subsequent administration of DSS for 8 days by ELISA; type: functional, organism-based; settings: time 11.0 day
[13] = AUC (0 to t) in male Sprague-Dawley rat at 1 mg/kg, iv administered via tail vein and measured upto 24 hrs; type: ADME, organism-based; settings: in vivo
[14] = system: Mus musculus; assay: Antiinflammatory activity in LPS induced C57BL/6 mouse model of acute lung injury assessed as reduction in alveolar wall thickening at 20 mg/kg, ip preadministered for 30 mins followed by LPS administration and measured after 6 hrs by H and E staining based analysis; type: functional, organism-based; settings: time 6.5 hrs
[15] = system: RAW264.7; assay: Antiinflammatory activity in LPS-induced mouse RAW264.7 cells assessed as inhibition of IL-6 release at 10 uM pretreated for 30 mins followed by LPS stimulation and measured after 24 hrs by ELISA relative to control; type: functional; settings: time 24.5 hrs
[16] = Oral bioavailability in male Sprague-Dawley rat at 10 mg/kg measured upto 24 hrs; type: ADME, organism-based; settings: in vivo
[17] = Stability of compound in simulated intestinal fluid at 10 mg/ml incubated for 8 hrs and measured every 2 hrs hy HPLC analysis; type: ADME; settings: simulated gi fluid
[18] = target: T1, Interleukin-1 receptor-associated kinase 4 (Mus musculus) (UniProt Q8R4K2); assay: Thermal stabilization of IRAK4 in mouse RAW264.7 cells at 10 uM measured after 4 hrs by CETSA; type: cell-based
T1 sequence (whole entry): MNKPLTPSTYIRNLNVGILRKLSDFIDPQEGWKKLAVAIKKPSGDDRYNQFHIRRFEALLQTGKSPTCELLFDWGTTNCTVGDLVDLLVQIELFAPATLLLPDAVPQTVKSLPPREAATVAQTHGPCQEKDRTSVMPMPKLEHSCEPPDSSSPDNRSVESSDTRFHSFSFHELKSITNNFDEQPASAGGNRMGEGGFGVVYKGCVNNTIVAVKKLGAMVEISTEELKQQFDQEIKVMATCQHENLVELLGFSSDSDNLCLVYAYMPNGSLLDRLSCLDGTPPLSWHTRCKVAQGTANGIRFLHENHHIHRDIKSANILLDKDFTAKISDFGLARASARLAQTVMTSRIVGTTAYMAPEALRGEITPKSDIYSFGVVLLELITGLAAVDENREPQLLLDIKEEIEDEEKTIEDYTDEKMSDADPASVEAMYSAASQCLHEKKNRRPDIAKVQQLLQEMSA

[19] = system: RAW264.7; assay: Inhibition of NFkappaB signaling pathway in LPS-induced mouse RAW264.7 cells assessed as inhibition of p65 phosphorylation by Western blot analysis; type: cell-based; settings: dose 2.5-10 µM
[20] = system: Mus musculus; assay: Antiinflammatory activity in male C57BL/6 mouse model of DSS-induced ulcerative colitis assessed as reduction in IL-6 level in serum at 20 mg/kg, po administered for 11 days with subsequent administration of DSS for 8 days by ELISA; type: functional, organism-based; settings: time 11.0 day
[21] = target: T2, Lymphocyte antigen 96 (Mus musculus) (UniProt Q9JHF9); assay: Thermal stabilization of MD2 in mouse RAW264.7 cells assessed as reduction in decomposition at 10 uM at 45 to 51 degreeC measured after 4 hrs by CETSA; type: cell-based
T2 sequence (whole entry): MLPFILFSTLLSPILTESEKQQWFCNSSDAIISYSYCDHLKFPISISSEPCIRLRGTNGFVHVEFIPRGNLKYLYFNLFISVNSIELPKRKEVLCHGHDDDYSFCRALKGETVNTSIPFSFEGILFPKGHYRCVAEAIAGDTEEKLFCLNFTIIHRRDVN

[22] = Clearance in male Sprague-Dawley rat at 10 mg/kg, po measured upto 24 hrs; type: ADME, organism-based; settings: in vivo
[23] = system: RAW264.7; assay: Inhibition of NFkappaB/MAPK signaling pathway in mouse RAW264.7 cells assessed as reduction in LPS-induced p65 phosphorylation at 50 uM by Western blot analysis; type: cell-based
[24] = target: Interleukin-1 receptor-associated kinase 1 (Homo sapiens, UniProt P51617); assay: Inhibition of IRAK1 (unknown origin) at 10 uM relative to control
[25] = system: RAW264.7; assay: Inhibition of NFkappaB signaling pathway in LPS-induced mouse RAW264.7 cells assessed as inhibition of IkappaBalpha degradation by Western blot analysis; type: cell-based; settings: dose 2.5-10 µM
[26] = system: Mus musculus; assay: Antiinflammatory activity in LPS induced C57BL/6 mouse model of acute lung injury assessed as inhibition of IL-6 release in serum at 20 to 40 mg/kg, ip preadministered for 30 mins followed by LPS administration and measured after 6 hrs by ELISA; type: functional, organism-based; settings: dose 20-40 mg/kg, time 6.5 hrs

Chain of Interleukin-1 receptor-associated kinase 1 (P51617 whole entry, looked up): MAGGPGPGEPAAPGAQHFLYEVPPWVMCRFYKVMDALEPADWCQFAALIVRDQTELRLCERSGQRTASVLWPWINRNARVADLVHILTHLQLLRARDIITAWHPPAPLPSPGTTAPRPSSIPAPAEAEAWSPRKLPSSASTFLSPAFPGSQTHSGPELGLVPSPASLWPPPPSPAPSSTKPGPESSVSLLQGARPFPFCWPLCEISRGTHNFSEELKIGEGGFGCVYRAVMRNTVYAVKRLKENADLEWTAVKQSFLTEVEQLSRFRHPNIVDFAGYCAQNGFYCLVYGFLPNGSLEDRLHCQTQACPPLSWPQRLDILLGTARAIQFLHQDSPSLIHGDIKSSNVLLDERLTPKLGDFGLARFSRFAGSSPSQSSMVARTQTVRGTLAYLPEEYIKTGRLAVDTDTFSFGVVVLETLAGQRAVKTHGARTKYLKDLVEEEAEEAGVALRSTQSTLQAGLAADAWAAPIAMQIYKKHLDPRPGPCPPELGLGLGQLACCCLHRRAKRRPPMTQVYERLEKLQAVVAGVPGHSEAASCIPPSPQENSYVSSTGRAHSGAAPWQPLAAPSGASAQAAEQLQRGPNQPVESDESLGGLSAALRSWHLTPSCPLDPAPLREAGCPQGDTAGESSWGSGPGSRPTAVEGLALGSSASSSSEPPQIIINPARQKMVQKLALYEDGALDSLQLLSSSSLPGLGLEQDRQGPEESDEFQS

COc1cc2c(O[C@H]3CC[C@@H](N)CC3)ncnc2cc1OCc1ccccc1
Activity [1]: 70% | inhibition [2]: Active | IC50 [3]: 2750 nM | Activity [4]: Active | inhibition [5]: Active | Stability [6]: Stable | Activity [7]: Active | Activity [8]: Active | Stability [9]: Stable | viability [10]: 98.2% | Activity [11]: Active | Activity [12]: Active | AUC(0-t) at 24 h [13]: 3800 ng·h/mL | Activity [14]: Active | inhibition at 10 µM [15]: 92.4% | bioavailability [16]: 28.1% | Stability [17]: Stable | Activity [18]: Active | inhibition [19]: Dose-Dependent Effect | Activity [20]: Active | Activity [21]: inactive | CL [22]: 1.48 mL/min/kg | inhibition [23]: Active | inhibition [24]: 87% | inhibition [25]: Dose-Dependent Effect | Activity [26]: Active

— ChEMBL document CHEMBL5523725, “Fragment-Based Anti-inflammatory Agent Design and Target Identification: Discovery of AF-45 as an IRAK4 Inhibitor to Treat Ulcerative Colitis and Acute Lung Injury” (J Med Chem, 2024)
